Assay results from PubChem BioAssay AID1259407 (Chemical Carcinogenesis Research Information System (CCRIS), 2018).
The source made the active and inactive calls. How the calls were made is not given here. Where a SMILES comes first, the peptide text is derived from it. [ ]: non-standard residue; d: D form. pGlu = O=C1CC[C@@H](C(=O)O)N1; Thz = O=C(O)[C@@H]1CSCN1

Tested on: CCRIS mutagenicity, Ames/micronucleus/aberration tests
Assay: CCRIS mutagenicity studies
[1] = Test System: AMES SALMONELLA TYPHIMURIUM, Strain/Indicator: TA98, Metabolic Activation: NONE, Method: STANDARD PLATE
[2] = Test System: AMES SALMONELLA TYPHIMURIUM, Strain/Indicator: TA98, Metabolic Activation: RAT, LIVER, S-9, AROCLOR 1254, Method: STANDARD PLATE
[3] = Test System: AMES SALMONELLA TYPHIMURIUM, Strain/Indicator: TA100, Metabolic Activation: NONE, Method: STANDARD PLATE
[4] = Test System: MOUSE LYMPHOMA, Strain/Indicator: L5178Y (TK+/TK-), Metabolic Activation: NONE, Method: SUSPENSION/PLATE
[5] = Test System: AMES SALMONELLA TYPHIMURIUM, Strain/Indicator: TA98, Metabolic Activation: NONE, Method: PREINCUBATION
[6] = Test System: AMES SALMONELLA TYPHIMURIUM, Strain/Indicator: TA100, Metabolic Activation: NONE, Method: PREINCUBATION
[7] = Test System: AMES SALMONELLA TYPHIMURIUM, Strain/Indicator: TA1535, Metabolic Activation: NONE, Method: PREINCUBATION
[8] = Test System: AMES SALMONELLA TYPHIMURIUM, Strain/Indicator: TA1537, Metabolic Activation: NONE, Method: PREINCUBATION

**Q.** With `O=C1CC[C@@H](C(=O)N2CSC[C@H]2C(=O)O)N1` ([pGlu]-[Thz]-OH) as the compound, how does the mutagenic call [1] read?
**A.** The mutagenic call was “inactive; negative”.

**Q.** And the mutagenic call [2]?
**A.** The mutagenic call was “inactive; negative”.

**Q.** What about the mutagenic call [3] of the same compound?
**A.** Its mutagenic call is “inactive; negative”.

**Q.** And the mutagenic call (Test System: AMES SALMONELLA TYPHIMURIUM, Strain/Indicator: TA100, Metabolic Activation: RAT, LIVER, S-9, AROCLOR 1254, Method: STANDARD PLATE)?
**A.** Its mutagenic call is “inactive; negative”.

**Q.** What about the mutagenic call (Test System: AMES SALMONELLA TYPHIMURIUM, Strain/Indicator: TA1535, Metabolic Activation: NONE, Method: STANDARD PLATE) of the same compound?
**A.** The mutagenic call was “inactive; negative”.

**Q.** What about the mutagenic call (Test System: AMES SALMONELLA TYPHIMURIUM, Strain/Indicator: TA1535, Metabolic Activation: RAT, LIVER, S-9, AROCLOR 1254, Method: STANDARD PLATE) of the same compound?
**A.** The mutagenic call was “inactive; negative”.

**Q.** And the mutagenic call (Test System: AMES SALMONELLA TYPHIMURIUM, Strain/Indicator: TA1537, Metabolic Activation: NONE, Method: STANDARD PLATE)?
**A.** Its mutagenic call is “inactive; negative”.

**Q.** And the mutagenic call (Test System: AMES SALMONELLA TYPHIMURIUM, Strain/Indicator: TA1537, Metabolic Activation: RAT, LIVER, S-9, AROCLOR 1254, Method: STANDARD PLATE)?
**A.** Its mutagenic call is “inactive; negative”.

**Q.** And the mutagenic call (Test System: AMES SALMONELLA TYPHIMURIUM, Strain/Indicator: TA1538, Metabolic Activation: NONE, Method: STANDARD PLATE)?
**A.** Its mutagenic call is “inactive; negative”.

**Q.** What about the mutagenic call (Test System: AMES SALMONELLA TYPHIMURIUM, Strain/Indicator: TA1538, Metabolic Activation: RAT, LIVER, S-9, AROCLOR 1254, Method: STANDARD PLATE) of the same compound?
**A.** Its mutagenic call is “inactive; negative”.

**Q.** What about the mutagenic call [4] of the same compound?
**A.** The mutagenic call was “inactive; negative”.

**Q.** And the mutagenic call (Test System: MOUSE LYMPHOMA, Strain/Indicator: L5178Y (TK+/TK-), Metabolic Activation: RAT, LIVER, S-9, AROCLOR 1254, Method: SUSPENSION/PLATE)?
**A.** Its mutagenic call is “inactive; negative”.

**Q.** And the mutagenic call (Test System: UDS HELA CELLS, Strain/Indicator: THY INCORP, Metabolic Activation: NONE, Method: AUTORADIOGRAPHY)?
**A.** Its mutagenic call is “inactive; negative”.

**Q.** What about the mutagenic call (Test System: UDS HELA CELLS, Strain/Indicator: THY INCORP, Metabolic Activation: RAT, LIVER, S-9, AROCLOR 1254, Method: AUTORADIOGRAPHY) of the same compound?
**A.** The mutagenic call was “inactive; negative”.

**Q.** With `ONc1ccccc1` as the compound, how does the mutagenic call (Test System: AMES SALMONELLA TYPHIMURIUM, Strain/Indicator: TA100, Metabolic Activation: RAT, LIVER, S-9, PCB, Method: PREINCUBATION) read?
**A.** Its mutagenic call is “active; positive”.

**Q.** And the mutagenic call (Test System: E. COLI, Strain/Indicator: WP2 UVRA, Metabolic Activation: NONE, Method: FLUCTUATION TEST)?
**A.** The mutagenic call was “inactive; negative”.

**Q.** How did the mutagenic call (Test System: AMES SALMONELLA TYPHIMURIUM, Strain/Indicator: TA98, Metabolic Activation: HAMSTER, LIVER, S-9, AROCLOR 1254, Method: PREINCUBATION) turn out when `O=[N+]([O-])c1cc(Cl)c(Cl)c(Cl)c1Cl` was run?
**A.** Its mutagenic call is “inactive; negative”.

**Q.** And the mutagenic call [5]?
**A.** The mutagenic call was “inactive; negative”.

**Q.** What about the mutagenic call (Test System: AMES SALMONELLA TYPHIMURIUM, Strain/Indicator: TA98, Metabolic Activation: RAT, LIVER, S-9, AROCLOR 1254, Method: PREINCUBATION) of the same compound?
**A.** Its mutagenic call is “inactive; negative”.

**Q.** And the mutagenic call (Test System: AMES SALMONELLA TYPHIMURIUM, Strain/Indicator: TA100, Metabolic Activation: HAMSTER, LIVER, S-9, AROCLOR 1254, Method: PREINCUBATION)?
**A.** The mutagenic call was “inactive; negative”.

**Q.** What about the mutagenic call [6] of the same compound?
**A.** Its mutagenic call is “inactive; negative”.

**Q.** What about the mutagenic call (Test System: AMES SALMONELLA TYPHIMURIUM, Strain/Indicator: TA100, Metabolic Activation: RAT, LIVER, S-9, AROCLOR 1254, Method: PREINCUBATION) of the same compound?
**A.** The mutagenic call was “inactive; negative”.

**Q.** And the mutagenic call (Test System: AMES SALMONELLA TYPHIMURIUM, Strain/Indicator: TA1535, Metabolic Activation: HAMSTER, LIVER, S-9, AROCLOR 1254, Method: PREINCUBATION)?
**A.** Its mutagenic call is “inactive; negative”.

**Q.** What about the mutagenic call [7] of the same compound?
**A.** Its mutagenic call is “inactive; negative”.

**Q.** And the mutagenic call (Test System: AMES SALMONELLA TYPHIMURIUM, Strain/Indicator: TA1535, Metabolic Activation: RAT, LIVER, S-9, AROCLOR 1254, Method: PREINCUBATION)?
**A.** Its mutagenic call is “inactive; negative”.

**Q.** What about the mutagenic call (Test System: AMES SALMONELLA TYPHIMURIUM, Strain/Indicator: TA1537, Metabolic Activation: HAMSTER, LIVER, S-9, AROCLOR 1254, Method: PREINCUBATION) of the same compound?
**A.** The mutagenic call was “inactive; negative”.

**Q.** What about the mutagenic call [8] of the same compound?
**A.** Its mutagenic call is “inactive; negative”.

**Q.** What about the mutagenic call (Test System: AMES SALMONELLA TYPHIMURIUM, Strain/Indicator: TA1537, Metabolic Activation: RAT, LIVER, S-9, AROCLOR 1254, Method: PREINCUBATION) of the same compound?
**A.** The mutagenic call was “inactive; negative”.

**Q.** Which results are given for `CC(C)CCCCCCCOC(=O)c1ccccc1C(=O)OCCCCCCCC(C)C`?
**A.** mutagenic call (Test System: AMES SALMONELLA TYPHIMURIUM, Strain/Indicator: TA98, Metabolic Activation: HAMSTER, LIVER, S-9, AROCLOR 1254 (10%), Method: PREINCUBATION): inactive; negative; mutagenic call [5]: inactive; negative; mutagenic call (Test System: AMES SALMONELLA TYPHIMURIUM, Strain/Indicator: TA98, Metabolic Activation: RAT, LIVER, S-9, AROCLOR 1254 (10%), Method: PREINCUBATION): inactive; negative; mutagenic call (Test System: AMES SALMONELLA TYPHIMURIUM, Strain/Indicator: TA100, Metabolic Activation: HAMSTER, LIVER, S-9, AROCLOR 1254 (10%), Method: PREINCUBATION): inactive; negative; mutagenic call [6]: inactive; negative; mutagenic call (Test System: AMES SALMONELLA TYPHIMURIUM, Strain/Indicator: TA100, Metabolic Activation: RAT, LIVER, S-9, AROCLOR 1254 (10%), Method: PREINCUBATION): inactive; negative; mutagenic call (Test System: AMES SALMONELLA TYPHIMURIUM, Strain/Indicator: TA1535, Metabolic Activation: HAMSTER, LIVER, S-9, AROCLOR 1254 (10%), Method: PREINCUBATION): inactive; negative; mutagenic call [7]: inactive; negative; mutagenic call (Test System: AMES SALMONELLA TYPHIMURIUM, Strain/Indicator: TA1535, Metabolic Activation: RAT, LIVER, S-9, AROCLOR 1254 (10%), Method: PREINCUBATION): inactive; negative; mutagenic call (Test System: AMES SALMONELLA TYPHIMURIUM, Strain/Indicator: TA1537, Metabolic Activation: HAMSTER, LIVER, S-9, AROCLOR 1254 (10%), Method: PREINCUBATION): inactive; negative; mutagenic call [8]: inactive; negative; mutagenic call (Test System: AMES SALMONELLA TYPHIMURIUM, Strain/Indicator: TA1537, Metabolic Activation: RAT, LIVER, S-9, AROCLOR 1254 (10%), Method: PREINCUBATION): inactive; negative; mutagenic call [4]: inactive; negative; mutagenic call (Test System: MOUSE LYMPHOMA, Strain/Indicator: L5178Y (TK+/TK-), Metabolic Activation: RAT LIVER S-9, Method: SUSPENSION/PLATE): inactive; negative

**Q.** For `Cc1cc2nccnc2c2nc(N)n(C)c12`, which mutagenic call [2] is on record?
**A.** The mutagenic call was “active; positive”.

**Q.** Which mutagenic call [2] does the source give for `Cc1cc2c(nc(N)n2C)c2nc(-c3ccccc3)cnc12` here?
**A.** The mutagenic call was “active; positive”.

**Q.** Which mutagenic call [1] does the source give for `O=[N+]([O-])c1c2c(c3ccc4cccc5ccc1c3c45)CCCC2` here?
**A.** Its mutagenic call is “inactive; negative”.

**Q.** What about the mutagenic call [3] of the same compound?
**A.** The mutagenic call was “inactive; negative”.
